Values of other authors as cited in patent US20180064655A1, “Hydroxynorketamine Transdermal Patch” (priority 2016, published 2018).

Legend:
[1] = metabolite of ketamine
[2] = in vivo
[3] = in vivo; remark: listed apart in the source
[4] = following a single administration

Row | SMILES | antidepressant effect [1] | ketamine-related side-effects [2] | onset of antidepressant effects [4] | persistence of antidepressant effects [4] | efficacy as an antidepressant (in vivo) | side effects limiting clinical use [3]
1 | N[C@@]1(c2ccccc2Cl)CCC[C@@H](O)C1=O [(2R,6R)-HNK, (2R,6R)-hydroxynorketamine] | responsible for the antidepressant effect observed with ketamine treatment | lacks ketamine-related side-effects |  |  |  | 
2 | CNC1(c2ccccc2Cl)CCCCC1=O (stereo not drawn) [Ketamine] |  |  | within hours | approximately one | rapid and robust efficacy as an antidepressant | abuse potential and sensory-dissociation side effects
